Data taken from patent US20260176289A1, “SMALL MOLECULE INHIBITORS OF KRAS PROTEINS” (Merck Sharp & Dohme LLC, priority 2022, published 2026).
Read-outs that look alike come from different tables or passages of the source.

Tests used:
KRAS-G12D = KRAS-G12D (Homo sapiens, UniProt P01116, G12D); assay: SOS-catalyzed nucleotide exchange assay (Procedure A, TR-FRET), KRAS-G12D; format: biochemical; settings: nucleotide exchange, read-out: KRAS G12D GNE IC50
Summary of the method: (§1)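 Signal ratio (520/495 nm, excitation 340 nm) reports Bodipy-GDP retention on biotinylated RAS after SOS-catalyzed exchange with 3 mM GTP. SOS was 40 nM, except 160 nM for G12V. Room-temperature exchange lasted 60 min (90 min for G12V), following a 60 min compound preincubation.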

KRAS-WT = KRAS-WT (Homo sapiens, UniProt P01116); assay: SOS-catalyzed nucleotide exchange assay (Procedure A, TR-FRET), KRAS-WT; format: biochemical; settings: nucleotide exchange, read-out: KRAS WT GNE IC50
Sequence of KRAS-WT (P01116 with tags, fused parts or gaps isoform P01116-2): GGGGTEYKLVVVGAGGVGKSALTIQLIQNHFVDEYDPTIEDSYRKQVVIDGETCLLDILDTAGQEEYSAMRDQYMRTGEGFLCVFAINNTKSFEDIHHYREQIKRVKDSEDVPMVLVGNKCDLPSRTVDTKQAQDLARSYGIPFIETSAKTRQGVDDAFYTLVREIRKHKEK
Summary of the method: as §1

AsPC-1 cells = assay: Cellular phospho-ERK assay, AsPC-1 cells (homozygous KRAS-G12D); format: cell-based; settings: Homo sapiens, ASPC1, 2 h, read-out: AsPC1 pERK IC50
Summary of the method: (§2)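 Cells seeded at 10,000-15,000 per well were incubated overnight, then exposed to compound for 2 hours at 37 °C in a 10-point, 1:3 series topping at 30 μM final. Lysates were assayed by Alpha SureFire Ultra multiplex for p-ERK and total ERK; IC50 came from a 4-parameter logistic fit of their ratio.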

PANC08.13 cells = assay: Cellular phospho-ERK assay, PANC08.13 cells (homozygous KRAS-G12D); format: cell-based; settings: Homo sapiens, read-out: PANC-08.13 pERK IC50
Summary of the method: as §2

KRAS-G12V = KRAS-G12V (Homo sapiens, UniProt P01116, G12V); assay: SOS-catalyzed nucleotide exchange assay (Procedure A, TR-FRET), KRAS-G12V; format: biochemical; settings: nucleotide exchange, read-out: KRAS G12V GNE IC50
Sequence of KRAS-G12V (P01116 with tags, fused parts or gaps isoform P01116-2 G12V): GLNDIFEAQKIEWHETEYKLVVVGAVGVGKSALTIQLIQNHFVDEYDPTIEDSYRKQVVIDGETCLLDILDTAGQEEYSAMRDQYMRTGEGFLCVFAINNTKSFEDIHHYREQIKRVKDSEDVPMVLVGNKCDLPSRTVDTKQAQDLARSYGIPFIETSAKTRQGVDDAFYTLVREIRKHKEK
Summary of the method: as §1

MKN-1 cells = assay: Cellular phospho-ERK assay, MKN-1 cells (amplified wild-type KRAS); format: cell-based; settings: Homo sapiens, read-out: MKN1 pERK IC50
Summary of the method: as §2

KRAS-G13D = KRAS-G13D (Homo sapiens, UniProt P01116, G13D); assay: SOS-catalyzed nucleotide exchange assay (Procedure A, TR-FRET), KRAS-G13D; format: biochemical; settings: nucleotide exchange, Procedure A; read-out: KRAS G13D GNE IC50
Sequence of KRAS-G13D (P01116 with tags, fused parts or gaps isoform P01116-2 G13D): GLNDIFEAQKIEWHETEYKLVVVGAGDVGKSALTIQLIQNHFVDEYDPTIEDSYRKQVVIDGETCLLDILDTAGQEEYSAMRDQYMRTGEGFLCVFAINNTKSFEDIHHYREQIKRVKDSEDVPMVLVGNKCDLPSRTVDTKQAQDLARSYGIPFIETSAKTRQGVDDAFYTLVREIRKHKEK

[1] = target: KRAS-G12C (C51S/C80L/C118S) (Homo sapiens, UniProt P01116, C118S/C51S/C80L/G12C); assay: SOS-catalyzed nucleotide exchange assay (Procedure A, TR-FRET), KRAS-G12C; format: biochemical; settings: nucleotide exchange, Procedure A; read-out: KRAS G12C GNE IC50
Sequence of KRAS-G12C (C51S/C80L/C118S) (P01116 with tags, fused parts or gaps isoform P01116-2 G12C/C51S/C80L/C118S): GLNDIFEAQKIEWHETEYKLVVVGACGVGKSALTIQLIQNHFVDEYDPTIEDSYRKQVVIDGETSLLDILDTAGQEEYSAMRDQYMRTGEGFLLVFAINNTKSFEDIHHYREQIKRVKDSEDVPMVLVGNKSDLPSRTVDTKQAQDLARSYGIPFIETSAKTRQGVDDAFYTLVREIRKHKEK
Summary of the method: as §1

SW620 cells = assay: Cellular phospho-ERK assay, SW620 cells (homozygous KRAS-G12V); format: cell-based; settings: Homo sapiens, read-out: SW620 pERK IC50
Summary of the method: as §2

[2] = amplified wild-type KRAS, 2 hours

Sequence of KRAS-G12D (P01116 with tags, fused parts or gaps isoform P01116-2 G12D): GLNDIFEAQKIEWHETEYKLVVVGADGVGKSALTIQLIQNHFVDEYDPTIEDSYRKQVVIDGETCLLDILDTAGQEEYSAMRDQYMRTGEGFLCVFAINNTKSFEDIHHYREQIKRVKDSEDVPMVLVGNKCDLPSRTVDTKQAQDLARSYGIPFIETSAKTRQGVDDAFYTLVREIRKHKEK

IC50 (AsPC-1 cells; 2 hours compound incubation) | IC50 (PANC08.13 cells; PANC-08-13, 2 hours compound incubation) | IC50 (MKN-1 cells; 2 hours compound incubation) | IC50 (SW620 cells; SW-620, 2 hours compound incubation) | SMILES | IC50 (KRAS-G12D) | IC50 (KRAS-WT) | IC50 (AsPC-1 cells; KRAS-G12D, 2 hours) | IC50 (PANC08.13 cells; PANC-08-13, KRAS-G12D, 2 hours) | IC50 (KRAS-G12V) | IC50 (MKN-1 cells; [2]) | IC50 (KRAS-G13D) | IC50 [1] | IC50 (SW620 cells; SW-620, KRAS-G12V, 2 hours)
 |  |  |  | C#Cc1c(C)cc2[nH]ncc2c1-c1nccc2c3c(N4CCOC[C@@](C)(O)C4)nc(OC[C@@]45CCCN4C[C@H](F)C5)nc3n(C)c12 (single isomer, unassigned) [Ex-7] | 22.3 nM | 42.9 nM | 248 nM | 99.9 nM | 30.2 nM | 142 nM | 22.9 nM | 129 nM | 233 nM
 |  |  |  | Cc1cc2[nH]ncc2c(-c2nccc3c4c(N5CCOC[C@@](C)(O)C5)nc(OC[C@@]56CCCN5C[C@H](F)C6)nc4n(C)c23)c1C(F)F (single isomer, unassigned) [Ex-10] | 40.3 nM | 97.7 nM | 439 nM | 191 nM | 54 nM | 200 nM | 93.8 nM | 30.1 nM | 337 nM
 |  |  |  | Cc1cc2[nH]ncc2c(-c2nccc3c4c(N5CCOC[C@@](C)(O)C5)nc(OC[C@]5(CN(C)C)CC5(F)F)nc4n(C)c23)c1C(F)F (single isomer, unassigned) [Ex-19] | 26.5 nM | 85.5 nM | 58.5 nM | 68.2 nM | 67.2 nM | 118 nM | 68.3 nM | 37.4 nM | 214 nM
 |  |  |  | Cc1cc2[nH]ncc2c(-c2nccc3c4c(N5CCC[C@@](C)(O)C5)nc(OC[C@]5(CN(C)C)CC5(F)F)nc4n(C)c23)c1C(F)(F)F [Ex-6, (3R)-1-(2-(((R)-1-((dimethylamino)methyl)-2,2-difluorocyclopropyl)methoxy)-9-methyl-8-(6-methyl-5-(trifluoromethyl)-1H-indazol-4-yl)-9H-pyrido[4′,3′:4,5]pyrrolo[2,3-d]pyrimidin-4-yl)-3-methylpiperidin-3-ol] | 98.1 nM | 218 nM | 460 nM | 188 nM | 128 nM | 304 nM | 49 nM | 104 nM | 291 nM
 |  |  |  | C=Cc1c(C)cc2[nH]ncc2c1-c1nccc2c1sc1nc(OC[C@@]34CCCN3C[C@H](F)C4)nc(N3CCOC[C@@](C)(O)C3)c12 [Ex-35, (6S)-4-(2-(((2R,7aS)-2-fluorotetrahydro-1H-pyrrolizin-7a(5H)-yl)methoxy)-8-(6-methyl-5-vinyl-1H-indazol-4-yl)pyrido[4′,3′:4,5]thieno[2,3-d]pyrimidin-4-yl)-6-methyl-1,4-oxazepan-6-ol] | 31.9 nM | 66.7 nM | 264 nM | 73.5 nM | 73.7 nM | 121 nM | 47.1 nM | 29.2 nM | 172 nM
 |  |  |  | CCOc1c(C)cc2[nH]ncc2c1-c1nccc2c1sc1nc(OC[C@@]34CCCN3C[C@H](F)C4)nc(N3CCOC[C@@](C)(O)C3)c12 [Ex-38, (6S)-4-(8-(5-ethoxy-6-methyl-1H-indazol-4-yl)-2-(((2R,7aS)-2-fluorotetrahydro-1H-pyrrolizin-7a(5H)-yl)methoxy)pyrido[4′,3′:4,5]thieno[2,3-d]pyrimidin-4-yl)-6-methyl-1,4-oxazepan-6-ol] | 96.6 nM | 239 nM | 395 nM | 122 nM | 186 nM | 197 nM | 123 nM | 36 nM | 277 nM
 |  |  |  | Cc1cc2[nH]ncc2c(-c2nccc3c2sc2nc(OC[C@@]45CCCN4C[C@H](F)C5)nc(N4CCOC[C@@](C)(O)C4)c23)c1OC(F)(F)Cl [Ex-39, (6S)-4-(8-(5-(chlorodifluoromethoxy)-6-methy1-1H-indazol-4-yl)-2-(((2R,7aS)-2-fluorotetrahydro-1H-pyrrolizin-7a(5H)-yl)methoxy)pyri-do[4′,3′:4,5]thi-eno[2,3-d]pyrimidin-4-yl)-6-methyl-1,4-oxazepan-6-ol] | 9.23 nM | 30 nM | 118 nM | 35.7 nM | 30.9 nM | 44.2 nM | 20.4 nM | 9.42 nM | 74.3 nM
 |  |  |  | C[C@@]1(O)COCCN(c2nc(OC[C@@]34CCCN3C[C@H](F)C4)nc3sc4c(-c5c(C(F)(F)F)c(Cl)cc6[nH]ncc56)nccc4c23)C1 [Ex-40, (6S)-4-(8-(6-chloro-5-(trifluoromethyl)-1H-indazol-4-yl)-2-(((2R,7aS)-2-fluorotetrahydro-1H-pyrrolizin-7a(5H)-yl)methoxy)pyrido[4′,3′:4,5]thi-eno[2,3-d]pyrimidin-4-yl)-6-methyl-1,4-oxazepan-6-ol] | 61.5 nM | 138 nM | 294 nM | 114 nM | 83.4 nM | 159 nM | 52.4 nM | 34.4 nM | 124 nM
 |  |  |  | Cc1cc2[nH]ncc2c(-c2nccc3c2sc2nc(OC[C@@]45CCCN4C[C@H](F)C5)nc(N4CCOC[C@@](C)(O)C4)c23)c1C(F)(F)F [Ex-126, (6S)-4-(2-(((2R,7aS)-2-fluorotetrahydro-1H-pyrrolizin-7a(5H)-yl)methoxy)-8-(6-methyl-5-(trifluoromethyl)-1H-indazol-4-yl)pyrido[4′,3′:4,5]thieno[2,3-d]pyrimidin-4-yl)-6-methyl-1,4-oxazepan-6-ol] | 34.9 nM | 88.3 nM | 271 nM | 85.4 nM | 52.8 nM | 169 nM | 58.6 nM | 30.7 nM | 320 nM
 |  |  |  | Cc1cc2[nH]ncc2c(-c2nccc3c2sc2nc(OC[C@@]45CCCN4C[C@H](F)C5)nc(N4CCOC[C@@](C)(O)C4)c23)c1C(F)F [Ex-129, (6S)-4-(8-(5-(di-fluoromethyl)-6-methyl-1H-indazol-4-yl)-2-(((2R,7aS)-2-fluorotetrahydro-1H-pyrrolizin-7a(5H)-yl)methoxy)-pyrido[4′,3′:4,5]thieno[2,3-d]pyr-imidin-4-yl)-6-meth-yl-1,4-oxazepan-6-ol] | 56.2 nM | 165 nM | 469 nM | 144 nM | 85 nM | 241 nM | 79 nM | 50 nM | 211 nM
131 nM | 58.4 nM | 118 nM | 253 nM | C=C(C)c1c(C)cc2[nH]ncc2c1-c1nccc2c1sc1nc(OC[C@@]34CCCN3C[C@H](F)C4)nc(N3CCOC[C@@](C)(O)C3)c12 [Ex-136, (6S)-4-(2-(((2R, 7aS)-2-fluorotetra-hydro-1H-pyrrol-izin-7a(5H)-yl)meth-oxy)-8-(6-methyl-5-(prop-1-en-2-yl)-1H-indazol-4-yl)pyr-ido[4′,3′:4,5]thieno [2,3-d]pyrimidin-4-yl)-6-methyl-1,4-oxazepan-6-ol] | 21.6 nM | 60 nM |  |  | 40.6 nM |  | 24.8 nM | 39 nM | 
